The text below walks through data of PubChem BioAssay AID226 (DTP/NCI, 2004).

This experiment relates to B6C3F1 mice, intracerebral ependymoblastoma, median survival T/C. The experiment can be described thus: NCI In Vivo Anticancer Drug Screen. Data for tumor model Ependymoblastoma (intracerebral) in B6C3F1 mice. The following applies: endpoint: median survival time, higher = longer survival. The method, then: The antitumor activity of compounds was measured in mice bearing transplantable tumors. Survival or tumor size were measured and the results are expressed as the measurement made in the treated group (T) divided by the measurement made in the vehicle treated control group (C). The tumor model used in this assay is Ependymoblastoma (intracerebral) in B6C3F1 mice

[1] abbreviates: dose: 8.0 mg/kg/injection, schedule: Q01DX005 (ip), vehicle: Klucel (hydroxypropylcellulose) (HPC).
The mark [2] stands for this setting: dose: 16.0 mg/kg/injection, schedule: Q01DX005 (ip), vehicle: Klucel (hydroxypropylcellulose) (HPC).
Where [3] appears, read: dose: 32.0 mg/kg/injection, schedule: Q01DX005 (ip), vehicle: Klucel (hydroxypropylcellulose) (HPC).
[4] abbreviates: dose: 64.0 mg/kg/injection, schedule: Q01DX005 (ip), vehicle: Klucel (hydroxypropylcellulose) (HPC).
Where [5] appears, read: dose: 128.0 mg/kg/injection, schedule: Q01DX005 (ip), vehicle: Klucel (hydroxypropylcellulose) (HPC).
[6] abbreviates: dose: 256.0 mg/kg/injection, schedule: Q01DX005 (ip), vehicle: Klucel (hydroxypropylcellulose) (HPC).
Where [7] appears, read: dose: 512.0 mg/kg/injection, schedule: Q01DX005 (ip), vehicle: Klucel (hydroxypropylcellulose) (HPC).
Where [8] appears, read: dose: 4.0 mg/kg/injection, schedule: Q01DX005 (ip), vehicle: saline.
[9] abbreviates: dose: 12.5 mg/kg/injection, schedule: Q01DX005 (ip), vehicle: saline with Tween-80.
[10] abbreviates: dose: 25.0 mg/kg/injection, schedule: Q01DX005 (ip), vehicle: saline with Tween-80.
Where [11] appears, read: dose: 4.0 mg/kg/injection, schedule: Q01DX005 (ip), vehicle: saline with Tween-80.
Where [12] appears, read: dose: 8.0 mg/kg/injection, schedule: Q01DX005 (ip), vehicle: saline with Tween-80.
Setting [13] is: dose: 16.0 mg/kg/injection, schedule: Q01DX005 (ip), vehicle: saline with Tween-80.
The mark [14] stands for this setting: dose: 32.0 mg/kg/injection, schedule: Q01DX005 (ip), vehicle: saline with Tween-80.

“And” between values parts separate entries of the source, which are not always exact repeats. Identical values can stand only once. Toxic doses and inconclusive results are not listed.

As for `O=P1(NCCCl)OCCC(OO)N1CCCl` (configuration not stated), the T/C was 106 % of control and 119 % of control (dose: 40.0 mg/kg/injection, schedule: Q01DX001 (ip), vehicle: Klucel (hydroxypropylcellulose) (HPC)); 115 % of control (dose: 80.0 mg/kg/injection, schedule: Q01DX001 (ip), vehicle: Klucel (hydroxypropylcellulose) (HPC)); 150 % of control (dose: 240.0 mg/kg/injection, schedule: Q01DX001 (ip), vehicle: Klucel (hydroxypropylcellulose) (HPC)).

Consider `CN(C)CC(=O)c1ccc(O)c(O)c1`, for which the T/C is, setting by setting: (dose: 100.0 mg/kg/injection, schedule: Q01DX005 (ip), vehicle: saline) 100 % of control; (dose: 200.0 mg/kg/injection, schedule: Q01DX005 (ip), vehicle: saline) 94 % of control; (dose: 400.0 mg/kg/injection, schedule: Q01DX005 (ip), vehicle: saline) 106 % of control; (dose: 800.0 mg/kg/injection, schedule: Q01DX005 (ip), vehicle: saline) 108 % of control.

Consider `CCC(=O)O[C@H]1CC[C@H]2[C@@H]3CCC4=CC(=O)CC[C@]4(C)[C@H]3CC[C@]12C`, for which the T/C under setting [1] is 97 % of control and 100 % of control; the T/C under setting [2] was 101 % of control and 87 % of control; the T/C under setting [3] is 101 % of control; the T/C under setting [4] is 106 % of control; the T/C under setting [5] was 102 % of control and 87 % of control; the T/C under setting [6] was 95 % of control. Moreover, the T/C under setting [7] was 95 % of control and 86 % of control.

In the case of `COc1cccc2c1C(=O)c1c(O)c3c(c(O)c1C2=O)C[C@@](O)(/C(C)=N/NC(=O)c1ccccc1)C[C@@H]3OC1CC(N)C(O)C(C)O1` (some centres not stated), the T/C was 97 % of control (dose: 2.0 mg/kg/injection, schedule: Q01DX005 (ip), vehicle: saline); 95 % of control under setting [8]; 98 % of control (dose: 8.0 mg/kg/injection, schedule: Q01DX005 (ip), vehicle: saline).

As to `O=[n+]1c2ccccc2n([O-])c2cc(Cl)ccc21`, the T/C runs as follows: under setting [9], 100 % of control; under setting [10], 106 % of control; (dose: 50.0 mg/kg/injection, schedule: Q01DX005 (ip), vehicle: saline with Tween-80) 95 % of control; (dose: 100.0 mg/kg/injection, schedule: Q01DX005 (ip), vehicle: saline with Tween-80) 89 % of control.

As to `CCOC(=O)CNC(=O)CCCCSc1ncnc2nc[nH]c12`, the T/C runs as follows: under setting [8], 106 % of control; (dose: 16.0 mg/kg/injection, schedule: Q01DX001 (oral), vehicle: Klucel (hydroxypropylcellulose) (HPC)) 95 % of control; under setting [2], 100 % of control and 105 % of control; (dose: 16.0 mg/kg/injection, schedule: Q01DX005 (ip), vehicle: saline) 95 % of control and 101 % of control; under setting [3], 96 % of control; (dose: 64.0 mg/kg/injection, schedule: Q01DX001 (oral), vehicle: Klucel (hydroxypropylcellulose) (HPC)) 92 % of control. The T/C was 95 % of control and 104 % of control and 109 % of control under setting [4]; 96 % of control and 109 % of control (dose: 64.0 mg/kg/injection, schedule: Q01DX005 (ip), vehicle: saline); 98 % of control under setting [5]; 105 % of control (dose: 256.0 mg/kg/injection, schedule: Q01DX001 (oral), vehicle: Klucel (hydroxypropylcellulose) (HPC)); 102 % of control and 108 % of control under setting [6]; 105 % of control and 112 % of control (dose: 256.0 mg/kg/injection, schedule: Q01DX005 (ip), vehicle: saline). Also, the T/C runs as follows: under setting [7], 96 % of control; (dose: 1024.0 mg/kg/injection, schedule: Q01DX005 (ip), vehicle: Klucel (hydroxypropylcellulose) (HPC)) 100 % of control and 119 % of control and 121 % of control; (dose: 1024.0 mg/kg/injection, schedule: Q01DX005 (ip), vehicle: saline) 111 % of control and 124 % of control.

Regarding `CCC(=O)NC1=C(N2CC2C)C(=O)C(NC(=O)CC)=C(N2CC2C)C1=O` (configuration not stated), the T/C by setting is: (dose: 0.78 mg/kg/injection, schedule: Q01DX009 (ip), vehicle: Klucel (hydroxypropylcellulose) (HPC)) 105 % of control; (dose: 1.56 mg/kg/injection, schedule: Q01DX009 (ip), vehicle: Klucel (hydroxypropylcellulose) (HPC)) 110 % of control; (dose: 3.12 mg/kg/injection, schedule: Q01DX009 (ip), vehicle: Klucel (hydroxypropylcellulose) (HPC)) 106 % of control; (dose: 6.25 mg/kg/injection, schedule: Q01DX009 (ip), vehicle: Klucel (hydroxypropylcellulose) (HPC)) 105 % of control.

Regarding `O=C1c2ccccc2C(=O)c2c(NCCNCCO)ccc(NCCNCCO)c21`, the T/C (dose: 1.0 mg/kg/injection, schedule: Q04DX003 (ip), vehicle: Klucel (hydroxypropylcellulose) (HPC)) is 107 % of control; the T/C (dose: 1.0 mg/kg/injection, schedule: Q04DX003 (ip), vehicle: water) was 102 % of control; the T/C (dose: 2.0 mg/kg/injection, schedule: Q01DX005 (ip), vehicle: saline with Tween-80) was 102 % of control [middle of 4 runs]; the T/C (dose: 2.0 mg/kg/injection, schedule: Q04DX003 (ip), vehicle: Klucel (hydroxypropylcellulose) (HPC)) is 97 % of control; the T/C (dose: 2.0 mg/kg/injection, schedule: Q04DX003 (ip), vehicle: water) is 101 % of control; the T/C under setting [11] is 101 % of control [middle of 4 runs]. The T/C (dose: 4.0 mg/kg/injection, schedule: Q04DX003 (ip), vehicle: Klucel (hydroxypropylcellulose) (HPC)) is 101 % of control; the T/C (dose: 4.0 mg/kg/injection, schedule: Q04DX003 (ip), vehicle: water) was 92 % of control; the T/C under setting [12] is 109 % of control [middle of 4 runs]; the T/C (dose: 8.0 mg/kg/injection, schedule: Q04DX003 (ip), vehicle: Klucel (hydroxypropylcellulose) (HPC)) was 110 % of control; the T/C (dose: 8.0 mg/kg/injection, schedule: Q04DX003 (ip), vehicle: water) is 102 % of control; the T/C under setting [13] is 113 % of control [middle of 4 runs]. Further, the T/C is 108 % of control (dose: 16.0 mg/kg/injection, schedule: Q04DX003 (ip), vehicle: Klucel (hydroxypropylcellulose) (HPC)); 92 % of control (dose: 16.0 mg/kg/injection, schedule: Q04DX003 (ip), vehicle: water); 94 % of control and 110 % of control and 116 % of control under setting [14]; 108 % of control (dose: 32.0 mg/kg/injection, schedule: Q04DX003 (ip), vehicle: Klucel (hydroxypropylcellulose) (HPC)); 94 % of control (dose: 32.0 mg/kg/injection, schedule: Q04DX003 (ip), vehicle: water); 97 % of control (dose: 64.0 mg/kg/injection, schedule: Q04DX003 (ip), vehicle: Klucel (hydroxypropylcellulose) (HPC)). In addition, the T/C (dose: 128.0 mg/kg/injection, schedule: Q04DX003 (ip), vehicle: Klucel (hydroxypropylcellulose) (HPC)) is 92 % of control.

On to `Nc1nc(SCc2ccccc2F)c2ncn(C3OC(CO)C(O)C3O)c2n1` (configuration not stated), for which the T/C is 101 % of control and 103 % of control (dose: 0.78 mg/kg/injection, schedule: Q01DX005 (ip), vehicle: saline with Tween-80); 100 % of control and 109 % of control (dose: 1.56 mg/kg/injection, schedule: Q01DX005 (ip), vehicle: saline with Tween-80); 93 % of control and 96 % of control (dose: 3.12 mg/kg/injection, schedule: Q01DX005 (ip), vehicle: saline with Tween-80); 91 % of control and 104 % of control and 120 % of control (dose: 6.25 mg/kg/injection, schedule: Q01DX005 (ip), vehicle: saline with Tween-80); 99 % of control under setting [9]; 122 % of control under setting [10].

For the compound `CCOC(=O)C(CC(C)C)NC(=O)C(Cc1ccc(N(CCCl)CCCl)cc1)NC(C)=O` (configuration not stated), the T/C was 87 % of control (dose: 1.0 mg/kg/injection, schedule: Q01DX005 (ip), vehicle: Klucel (hydroxypropylcellulose) (HPC)); 95 % of control (dose: 2.0 mg/kg/injection, schedule: Q01DX005 (ip), vehicle: Klucel (hydroxypropylcellulose) (HPC)); 97 % of control and 106 % of control and 113 % of control (dose: 4.0 mg/kg/injection, schedule: Q01DX005 (ip), vehicle: Klucel (hydroxypropylcellulose) (HPC)); 104 % of control and 108 % of control under setting [11]; 97 % of control and 102 % of control and 107 % of control under setting [1]; 101 % of control and 104 % of control under setting [12]. Further, the T/C under setting [2] was 100 % of control and 102 % of control and 105 % of control; the T/C under setting [13] is 98 % of control and 105 % of control; the T/C under setting [3] was 105 % of control and 109 % of control and 110 % of control; the T/C under setting [14] is 106 % of control; the T/C under setting [4] was 115 % of control; the T/C (dose: 64.0 mg/kg/injection, schedule: Q01DX005 (ip), vehicle: saline with Tween-80) is 163 % of control.
